# According to the supplement of paper PMC3493320:
# Tested on: NCI-H295R
# Test: IC50 (antiproliferative, ATP content)
# Details: 48 h
# Method in brief: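 In 1536-well plates, 1500 adrenocortical carcinoma cells per well were grown overnight in serum-free, ITS-supplemented DMEM before compounds were pin-transferred at 8 final concentrations (0.6 nM to 46 µM). After 48 h at 37 °C and 5% CO2, CellTiter-Glo luminescence was read following 20 min at room temperature and normalised to vehicle and positive-control wells. IC50 values came from logistic curve fits, with compounds lacking any concentration response listed as above the top dose.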
row,IC50,Compound
1,> 46 µM,CCC(=O)OCC(=O)[C@@]1(OC(=O)CC)[C@H](C)C[C@H]2[C@H]3[C@H]([C@@H](O)C[C@@]21C)[C@@]1(C)C=CC(=O)C=C1C[C@H]3Cl
2,> 46 µM,C1[C@@H]([C@H]([C@@H]([C@H]([N@]1CCO)CO)O)O)O
3,> 46 µM,CCOC(=O)c1ccc(O)cc1
4,> 46 µM,CC(C)[C@H](NC(=O)[C@H](CC(=O)O)NC(=O)[C@H](CCCCN)NC(=O)[C@@H](N)CCCNC(=N)N)C(=O)N[C@@H](Cc1ccc(O)cc1)C(=O)O
5,> 46 µM,CC(C(O)c1ccc(O)cc1)N1CCC(Cc2ccccc2)CC1 (stereo not drawn)
6,> 46 µM,O=C(O)Cc1ccc(-c2ccccc2)cc1
7,> 46 µM,COc1ccc2cc(CCC(C)=O)ccc2c1
8,> 46 µM,CCCCC[C@H](O)/C=C/[C@H]1[C@H](O)CC(=O)[C@@H]1CCCCCCC(=O)O
9,> 46 µM,Cc1cccc(C)c1NC(=O)CN1CCN(CCCC(c2ccc(F)cc2)c2ccc(F)cc2)CC1
10,> 46 µM,CC(C)(C)C(=O)C(Oc1ccc(Cl)cc1)n1ccnc1 (stereo not drawn)
11,> 46 µM,c1cccc2N\C=C/c12
12,> 46 µM,NC(Cc1ccc(Cl)cc1)C(=O)O (stereo not drawn)
13,> 46 µM,NCCc1cnc[nH]1
14,> 46 µM,CC/C=C\C/C=C\C/C=C\CCCCCCCC(=O)O
15,> 46 µM,O=C1c2ccccc2-c2n[nH]c3cccc1c23
16,> 46 µM,O=C(CCCN1CCN2CCCC2C1)c1ccc(F)cc1 (stereo not drawn)
17,> 46 µM,O=C([O-])CCC1=C(C)C/3=N\C1=C/C2=C(CCC([O-])=O)C(C)=C(/C=C(C(C=C)=C4C)\N=C4/C=C(C(C=C)=C5C)\N\C5=C3)N2.[Na+].[Na+]
18,> 46 µM,CNCCCCOc1ccccc1Cc1ccccc1
19,> 46 µM,CC(=O)Nc1ccc(O)cc1
20,> 46 µM,CC(C(=O)O)c1ccc2c(c1)Cc1cccnc1O2 (stereo not drawn)
21,> 46 µM,Oc1ccc(/C=C/c2cc(O)cc(O)c2)cc1
22,> 46 µM,CN(C)CC/C=C1/c2ccccc2COc2ccc(CC(=O)O)cc21.Cl
23,> 46 µM,COc1ccc(-c2cc(=S)ss2)cc1
24,> 46 µM,COc1ccc2cc3[n+](cc2c1OC)CCc1cc2c(cc1-3)OCO2.[Cl-]
25,> 46 µM,CCN(CC)CC#CCOC(=O)C(O)(c1ccccc1)C1CCCCC1.Cl (stereo not drawn)
26,> 46 µM,CCC(C(=O)NC(N)=O)c1ccccc1 (stereo not drawn)
27,> 46 µM,Cc1cc(N)c2ccccc2[n+]1CCCCCCCCCC[n+]1c(C)cc(N)c2ccccc21.[Cl-].[Cl-]

row,IC50,Compound
1,> 46 µM,COc1ccc(CCNC[C@H](O)c2ccc(O)cc2)cc1OC
2,> 46 µM,CC(O)CCCCn1c(=O)c2c(ncn2C)n(C)c1=O (stereo not drawn)
3,> 46 µM,CN(Cc1ccccc1)Cc1ccccc1
4,> 46 µM,[O-][n+]1cccc(CO)c1
5,> 46 µM,CCC(=O)c1ccc2c(c1)N(CCCN(C)C)c1ccccc1S2.Cl
6,> 46 µM,CC(C)[C@H](N)C(=O)OCCOCn1cnc2c(=O)[nH]c(N)nc21.Cl
7,> 46 µM,CC(=O)OCC(CCn1cnc2cnc(N)nc21)COC(C)=O
8,> 46 µM,CC[N+](CC)(CC)CCC(O)(c1ccccc1)C1CCCCC1.[Cl-] (stereo not drawn)
9,> 46 µM,CC=CC=CC(=O)O
10,> 46 µM,CNCc1ccccc1.Cl
11,> 46 µM,O=C1c2ccccc2CN2C(=O)c3ccccc3CN12
12,> 46 µM,Cc1ncc([N+](=O)[O-])n1CC(O)CCl (stereo not drawn)
13,> 46 µM,C/C(=C(/CCOP(=O)(O)O)SC(=O)c1ccccc1)N(C=O)Cc1cnc(C)nc1N
14,> 46 µM,Cc1ccc(S(=O)(=O)NC(=O)NN2CCCCCC2)cc1
15,> 46 µM,NC(=O)c1cccnc1
16,> 46 µM,CC[N+](C)(CC)CCOC(=O)C1c2ccccc2Oc2ccccc21.[Br-]
17,> 46 µM,CC(Cc1ccccc1)(NC(=O)CN)c1ccccc1.Cl (stereo not drawn)
18,> 46 µM,Cn1c(=O)c2c(ncn2CC(O)CO)n(C)c1=O (stereo not drawn)
19,> 46 µM,CC(CC=O)CCCC(C)(C)O (stereo not drawn)
20,> 46 µM,[C@@]2\1(\C(=C/C(/C=C/1)=O)[C@H](C[C@@H]4[C@@H]2[C@H](C[C@@]3([C@](C(=O)CO)(O)CC[C@H]34)C)O)C)C
21,> 46 µM,O=C([O-])CCCc1ccccc1.[Na+]
22,> 46 µM,NC(CNC([C@H](CC(C)C)N[C@]([C@@H]1CCCN1[C@]([C@H](CSSC[C@H](N)C(N[C@@H](CC3=CC=C(O)C=C3)C2=O)=O)NC([C@H](CC(N)=O)NC([C@@H](NC([C@](N2)([H])[C@@H](C)CC)=O)CCC(N)=O)=O)=O)=O)=O)=O)=O.O=C(C)O
23,> 46 µM,O=C(O)[C@H]1CN(C/C=C/P(=O)(O)O)CCN1
24,> 46 µM,Cc1ncc(COP(=O)(O)O)c(CN)c1O
25,> 46 µM,O=C3N1/C(=C(\CS[C@@H]1[C@@H]3NC(=O)Cn2cnnn2)CSc4nnc(C)s4)C(O)=O
26,> 46 µM,CCCCN1CCCC[C@H]1C(=O)Nc1c(C)cccc1C.Cl
27,> 46 µM,C#CCN(C)CCCOc1ccc(Cl)cc1Cl.Cl

# The next lines start with the compound.
row,Compound,IC50
1,C[C@H](CCC(=O)O)[C@H]1CC[C@H]2[C@@H]3C(=O)C[C@@H]4CC(=O)CC[C@]4(C)[C@H]3CC(=O)[C@]12C,> 46 µM
2,O.O=P1(N(CCCl)CCCl)NCCCO1 (stereo not drawn),> 46 µM
3,CCCCCCCCCCCCCCCCOP(=O)([O-])OCC[N+](C)(C)C,> 46 µM
4,O=C(C2=CC=CC=C2)O[C@H]1C[C@H](CC3)N(C)[C@H]3[C@H]1[C@@](O)=O,> 46 µM
5,CN1C[C@H](C(=O)N[C@]2(C)O[C@@]3(O)[C@@H]4CCCN4C(=O)[C@H](Cc4ccccc4)N3C2=O)C[C@@H]2c3cccc4[nH]cc(c34)C[C@H]21,> 46 µM
6,C[C@H]1[C@H]2CC[C@H]3[C@@H]4CC=C5C[C@@H](N(C)C)CC[C@]5(C)[C@H]4CC[C@]23CN1C,> 46 µM
7,Cc1ccc(Cl)c(O)c1,> 46 µM
8,C[C@H]1[C@H](NC(=O)C(=NOC(C)(C)C(=O)O)c2csc(N)n2)C(=O)N1S(=O)(=O)O,> 46 µM
9,COc1ccc2c(c1)N(C[C@H](C)CN(C)C)c1ccccc1S2.O=C(O)/C=C\C(=O)O,> 46 µM
10,CN1CCN(c2c(F)cc3c(=O)c(C(=O)O)cn4c3c2SCC4)CC1.Cl,> 46 µM
11,O=C(NCNC(=O)NC1C(=O)NC(=O)N1CO)NC1C(=O)NC(=O)N1CO (stereo not drawn),> 46 µM
12,COCC(C)N(C(=O)CCl)c1c(C)csc1C (stereo not drawn),> 46 µM
13,CC(/C=C/C=C(\C)C(=O)O[C@@H]1O[C@H](CO[C@@H]2O[C@H](CO)[C@@H](O)[C@H](O)[C@H]2O)[C@@H](O)[C@H](O)[C@H]1O)=C\C=C\C=C(C)\C=C\C=C(/C)C(=O)O[C@@H]1O[C@H](CO[C@@H]2O[C@H](CO)[C@@H](O)[C@H](O)[C@H]2O)[C@@H](O)[C@H](O)[C@H]1O,> 46 µM
14,Nc1ccc([As](=O)(O)O)cc1,> 46 µM
15,OC[C@H]1O[C@@H](O[C@H]2[C@H](O)[C@@H](O)[C@H](O)O[C@@H]2CO)[C@H](O)[C@@H](O)[C@@H]1O,> 46 µM
16,O=[N+]([O-])c1cc([As](=O)(O)O)ccc1O,> 46 µM
17,NP(N)(=O)NC(=O)c1ccc(F)cc1,> 46 µM
18,O=C([C@H](CC1=CN=CN1)N[C@]([C@H](CC2)NC2=O)=O)N(CCC3)[C@@H]3[C@](N)=O,> 46 µM
19,CCC(C)(S(=O)(=O)CC)S(=O)(=O)CC,> 46 µM
20,COc1nc(C)nc(Cl)c1NC1=NCCN1,> 46 µM
21,Nc1nc(N)nc(NC2CC2)n1,> 46 µM
22,CN[C@@H]1[C@@H](O)[C@@H](O[C@@H]2[C@@H](O)[C@H](O[C@H]3O[C@H](CN)[C@@H](O)[C@H](O)[C@H]3O)[C@@H](N)C[C@H]2NC(=O)C(O)CN)OC[C@]1(C)O.O=S(=O)(O)O (stereo partly drawn),> 46 µM

row,Compound,IC50
1,BrCCCBr.CN(C)CCCCCCN(C)C,> 46 µM
2,C[C@]12C[C@H](O)[C@H]3[C@@H](CCC4=CC(=O)CC[C@@]43C)[C@@H]1CC[C@H]2C(=O)CO,> 46 µM
3,C=CCN1C(=O)C(CC(C)C)NC1=S (stereo not drawn),> 46 µM
4,C1COC(NC(C2CC2)C2CC2)=N1,> 46 µM
5,CC(C)CCCC(C)CCCC(C)CCCCC(C)CCCC(C)CCCC(C)C (stereo not drawn),> 46 µM
6,O=C(C(CCC)CCC)O[C@@H]1C[C@H](CC2)[N@@+](C)(C)[C@H]2C1.[Br-],> 46 µM
7,CC(C)CC(N(C)C)C1(c2ccc(Cl)cc2)CCC1.Cl (stereo not drawn),> 46 µM
8,CCOC(=O)C=C(C)C=CC=C(C)C=Cc1c(C)cc(OC)c(C)c1C,> 46 µM
9,C[C@]12CC[C@H]3[C@@H](CCC4=C(Cl)C(=O)CC[C@@]43C)[C@@H]1CC[C@@H]2O,> 46 µM
10,O=C1C2CC3CC1CC(O)(C3)C2,> 46 µM
11,CC(NC(C)(C)C)C(=O)c1cccc(Cl)c1.Cl (stereo not drawn),> 46 µM
12,CC(C)c1c(CN(C)C(C)Cc2ccccc2)n(C)n(-c2ccccc2)c1=O (stereo not drawn),> 46 µM
13,Cc1cc(C(C)(C)C)cc(C)c1CC1=NCCN1.Cl,> 46 µM
14,Nc1nc(=O)n([C@@H]2CS[C@H](CO)O2)cc1F,> 46 µM
15,CO[C@H]1O[C@@H]2O[C@@]3(C)CC[C@H]4[C@H](C)CC[C@@H]([C@H]1C)[C@@]24OO3,> 46 µM
16,COP(=S)(OC)SCN1C(=O)c2ccccc2C1=O,> 46 µM
17,CCN(CC)C(=O)N[C@@H]1C=C2c3cccc4[nH]cc(c34)C[C@@H]2N(C)C1,> 46 µM
18,[O-][C@@]([C@@]13[C@@]([C@]2([H])OC(C)(C)OC[C@@]([H])2O3)([H])OC(C)(C)O1)=O.[Na+],> 46 µM
19,Nc1ncnc2c1ncn2[C@H]1CC[C@@H](CO)O1,> 46 µM
20,CC[C@H]1OC(=O)[C@H](C)[C@@H](O[C@H]2C[C@@](C)(OC)[C@@H](O)[C@H](C)O2)[C@H](C)[C@@H](O[C@@H]2O[C@H](C)C[C@H](N(C)C)[C@H]2O)[C@](C)(O)C[C@@H](C)C(=O)[C@H](C)[C@@H](O)[C@]1(C)O,> 46 µM
21,C[C@H](N)C(=O)N[C@@H](C)P(=O)(O)O,> 46 µM
22,CCCCCCCCCCCCCC(=O)OCC(COP(=O)([O-])OCC[N+](C)(C)C)OC(=O)CCCCCCCCCCCCC (stereo not drawn),> 46 µM
